Drawing on the NIST ThermoML archive (doi:10.1021/je049691v), this text covers mass density for two molecules.

± gives the expanded uncertainty stated by the source.

The conditions of the series: 101.33 kPa, Liquid, Vibrating tube method.

What is called mass density is the mass of a sample divided by its volume. In the case of `NCCO` [2-aminoethan-1-ol], the mass density (297.15 K) is on record as 1012.94 ± 0.13 kg/m3. Consider `CO` [methanol], for which the mass density (298.15 K) turned out to be 786.58 ± 0.13 kg/m3.
